Measurements from PMC11871066, “Structure-based discovery of hydrocarbon-stapled paxillin peptides that block FAK scaffolding in cancer” (Nature Communications, 2025).
Like-named read-outs stand apart in the source and are kept apart here. Blank lines part the entries; values can stand above or below the molecule they belong to. Bridge positions count the residues as written; N and C are the ends. Square brackets hold non-standard residues; d marks the D form. Peptide text beside a SMILES is read from it. * marks the point of attachment. Myristoyl = CCCCCCCCCCCCCC(=O)*; R8 = C=CCCCCCC[C@@](C)(N)C(=O)O; S5 = C=CCCC[C@](C)(N)C(=O)O

Legend:
[1] = mouse
[2] = mouse, in vivo, ip
Method: (§4) Cell permeability of peptide drugs was determined by fluorescence measurement of TAMRA-labeled peptides in 96-well plates and ClarioStar Plus plate reader using BMG ClarioStar MARS software (version 4.20). […] Percent uptake was calculated as background-subtracted fluorescence absorbed by cells/fluorescence of peptide in media-only wells, then made relative to TAMRA-Alkyne. Three biological replicates (n = 3) were performed per cell line per treatment group. Peptide proteolysis was measured using immobilized Trypsin-agarose resin (Thermo Fisher) and quantification by LC-MS. […] In vivo pharmacokinetics were performed by the UACC Analytical Chemistry Shared Resource. […] The mice were fed NIH-31 irradiated pellets (Tekland Premier, Madison, Wisconsin), and reverse osmosis water was freely available. […] The average plasma concentration versus time data were analyzed using PKSolver (version 2.0) by a noncompartmental approach.

in vivo = conditions: female, Balb/cJ, mouse, ip
Method: as §4

trypsin [3] = assay: in vitro; conditions: isolated enzyme trypsin
Method: as §4

[4] = Liver microsomal stability; conditions: human liver microsomes
[5] = biological target: 97 kinases (kinase named in endpoint) (Homo sapiens, UniProt P00519, T315I); assay: Eurofins KINOMEscan profiling, 97 kinases; conditions: read-out: % Ctrl, ABL(T315I)-phosphorylated
Method: (§5) This experiment was performed by Eurofins KINOMEscan™ Profiling Service. […] The lysates were centrifuged and filtered, the remaining kinases were produced in HEK-293 cells and subsequently tagged with DNA for qPCR detection. […] The liganded beads were blocked with excess biotin and washed with blocking buffer (SeaBlock (Pierce), 1% BSA, 0.05% Tween-20, 1 mM DTT). […] Test compounds were prepared as 100x stocks in 100% DMSO and directly diluted into the assay. All reactions were performed in polypropylene 384-well plates in a final volume of 0.02 ml. […] The kinase concentration in the eluates was measured by qPCR.
(§6) (negative control signal - positive control signal)] x 100. ( b) AccompanyingSelectivity Scores or S -scores
(§7) which are quantitative measures of compound selectivity. They are calculated by dividing the number of
(§8) kinases that compounds bind to by the total number of distinct kinases tested, excluding mutant variants.
(§9) S(35)= ( num ber of non -mutant kinases with %Ctrl <35)/(number of non- mutant kinases tested)], S(10)=
(§10) non- mutant kinases with %Ctrl <1)/(number of non- mutant kinases tested)].

[6] = biological target: 97 kinases (kinase named in endpoint) (Homo sapiens, UniProt P22607); assay: Eurofins KINOMEscan profiling, 97 kinases; conditions: read-out: % Ctrl, FGFR3
Chain of 97 kinases (kinase named in endpoint) (Homo sapiens, UniProt P22607) (P22607 23-806): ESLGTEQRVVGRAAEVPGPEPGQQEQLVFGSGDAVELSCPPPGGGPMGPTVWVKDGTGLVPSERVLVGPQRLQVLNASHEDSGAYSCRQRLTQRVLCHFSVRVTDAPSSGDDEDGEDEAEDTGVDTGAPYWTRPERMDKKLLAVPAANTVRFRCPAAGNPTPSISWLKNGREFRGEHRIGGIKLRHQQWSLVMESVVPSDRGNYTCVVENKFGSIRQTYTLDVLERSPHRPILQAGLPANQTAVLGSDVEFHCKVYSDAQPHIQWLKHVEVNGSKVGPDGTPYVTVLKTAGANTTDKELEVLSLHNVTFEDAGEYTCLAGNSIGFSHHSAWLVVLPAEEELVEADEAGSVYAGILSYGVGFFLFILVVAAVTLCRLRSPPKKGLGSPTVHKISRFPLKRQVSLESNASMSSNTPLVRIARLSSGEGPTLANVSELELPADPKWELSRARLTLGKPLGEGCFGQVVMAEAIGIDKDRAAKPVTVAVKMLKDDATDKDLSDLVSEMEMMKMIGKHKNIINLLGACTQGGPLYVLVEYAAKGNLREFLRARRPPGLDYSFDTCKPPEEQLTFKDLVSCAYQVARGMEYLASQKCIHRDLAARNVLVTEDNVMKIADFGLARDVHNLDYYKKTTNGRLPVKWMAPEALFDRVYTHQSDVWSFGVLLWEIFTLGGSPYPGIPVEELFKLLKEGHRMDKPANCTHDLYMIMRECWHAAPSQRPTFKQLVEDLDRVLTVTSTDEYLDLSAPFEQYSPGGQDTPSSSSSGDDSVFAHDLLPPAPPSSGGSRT
Method: as §5, §6, §7, §8, §9, §10

[7] = In vivo pharmacokinetics, single i.p. administration; conditions: Cmax vs IC50 0.8 µM
Method: as §4

SK-MEL-147 cells [8] = assay: Cellular uptake of TAMRA-labeled peptides; type: in vitro ADME, human; conditions: TAMRA-tagged, cell line not given
[9] = tested on: FAK/paxillin focal adhesions in SK-MEL-147 cells; assay: cells; type: cell-based, human; conditions: 48 h
Method: SK-MEL-147 cells were collected and seeded into the inner 60 wells of 96-well, black-walled plates (Agilent, 204626-100) at 1000 cells per well in 100 uL of complete DMEM overnight in a 37 °C incubator with 5% CO2. The next day, the serum-containing media was removed from each well and cells were washed with PBS before treating the cells in serum-free DMEM and 0.5% DMSO for 48 h. After treatment, cells were pre-fixed with 4% paraformaldehyde diluted in 1x PBS being added directly to the culture medium for 2 min. Pre-fixation media was then removed, and 4% paraformaldehyde diluted in 1X PBS was added to each well for 3 min at room temperature. Fixative was then removed and neutralized twice with 100 mM Tris Buffered Saline in MilliQ water and then washed once with 0.1% Tween-20 in PBS. Cells were permeabilized with 0.5% Triton-X 100 in PBS for 5 min at room temperature, then the permeabilization buffer was removed, and cells were washed twice with 0.1% Tween-20 in PBS. Cells were then blocked with 10% Goat Serum in PBS for 1 h at room temperature. […] Antibody stain was then removed, and cells were washed twice with 0.1% Tween-20 in PBS. […] Cells were then washed twice with 0.1% Tween-20 in PBS and DAPI stain (Sigma-Aldrich, D9542-5MG, 1 mg/mL) diluted 1:40,000 in PBS in the dark for 5 min at room temperature. DAPI stain was then removed, and cells were washed twice with 0.1% Tween-20 in PBS, then twice with PBS for 5 min per wash on an orbital shaker. Plates were then imaged on the BioTek Cytation C10 Confocal Imaging Reader. Three fields of view were taken per well per run and analyzed in the accompanying Agilent BioTek Gen5 Software (version 3.16). The following software parameters were used to quantify FAK-containing, paxillin-containing, and FAK/paxillin-containing focal adhesions: area (0.25–33); circularity (<0.602); FAK signal to noise ratio (>2.55), FAK integrated density (SKMEL147 > 4200; WM88 >9400), paxillin signal to noise ratio (>4.5), paxillin integrated density (>8000), presence of F-actin (phalloidin) staining; and limited proximity to DAPI staining (integrated density <4000).

SK-MEL-147 cells [10] = assay: LDH release assay; type: cell-based, human; conditions: 100 μM to 200 nM, 45 min, n = 3
Method: (§1) Non-specific membrane disruption was assessed quantitatively by measuring the lactate dehydrogenase (LDH) activity in the medium using the cytoscan-LDH cytotoxicity assay kit (G-Biosciences Inc., St Louis, Mo, USA). SK-MEL-147 and WM88 human melanoma cells were plated in 96-well white-walled plates at 5k cells/well in 90 uL of serum complete DMEM and returned to a 37 °C incubator with 5% CO2 overnight. The cells were then treated in triplicate with 2012, 2020 (negative control), and Gambogic Acid (positive control) at titrating concentrations ranging from 100 μM to 200 nM and allowed to incubate for 45 min in a 37 °C incubator with 5% CO2. About 50 µl of supernatant was transferred from each well to a new flat-bottom 96-well white-walled plate and mixed with 50 µl of recombinant substrate mixture. This reaction was allowed to occur at room temperature for 30 min protected from light. Then, 50 µl of stop solution was added to terminate the reaction. […] Results were reported as 490 nm values […], averaged, three biological replicates were repeated per cell line, and graphs were generated using GraphPad Prism (version 10.3.1), reporting mean LDH activity ± SD.
(§2) LDH release assay preformed in human melanoma
(§3) Acid (pos. control) at titrating concentrations ranging from 100 μ M to 200 nM for 45 minutes. […]

WM88 cells = assay: LDH release assay; type: cell-based, human; conditions: 100 μM to 200 nM, 45 min, n = 3
Method: as §1, §2, §3

trypsin [11] = assay: Trypsin proteolytic resistance assay; conditions: immobilized trypsin-agarose resin
Method: as §4

[12] = tested on: 97 kinases (kinase named in endpoint); assay: Eurofins KINOMEscan profiling, 97 kinases; conditions: 1 µM
Method: as §5, §6, §7, §8, §9, §10

Compound: CCCCCCCCCCCCCC(=O)N[C@@H](CC(N)=O)C(=O)N[C@@H](CC(C)C)C(=O)N[C@]1(C)CCCCCCC=CCCC[C@@](C)(C(=O)N[C@@H](CCC(=O)O)C(=O)N[C@@H](CC(C)C)C(=O)N[C@@H](CC(N)=O)C(N)=O)NC(=O)[C@H](CC(C)C)NC(=O)[C@H](CC(C)C)NC(=O)[C@H](CCCNC(=N)N)NC(=O)[C@H](CC(=O)O)NC(=O)[C@H](CC(C)C)NC(=O)[C@H](CCC(=O)O)NC1=O [compound 2012]
plasma stability t1/2 [1]: > 2 h
Cmax, molar concentration [2]: 48.5 µM
plasma clearance [2]: 0.26 mL/min/kg
Cmax (in vivo): 89.4 µg/mL
half-life (in vivo): 16.5 h
level at 0.5 h (in vivo; 2012 concentration): 11.4 µg/mL
remaining at 0.25 h, 100 µM (trypsin [3]): 91%
remaining at 0.5 h, 100 µM (trypsin [3]): 108%
remaining at 1 h, 100 µM (trypsin [3]): 102%
remaining at 2 h, 100 µM (trypsin [3]): 85%
remaining at 3 h, 100 µM (trypsin [3]): 104%
remaining at 4 h, 100 µM (trypsin [3]): 91%
remaining at 6 h, 100 µM (trypsin [3]): 93%
remaining at 8 h, 100 µM (trypsin [3]): 111%
remaining at 24 h, 100 µM (trypsin [3]): 97%
remaining at 48 h, 100 µM (trypsin [3]): 89%
remaining in liver microsomes ([4]; 0 min, Rep1): 98
remaining in liver microsomes ([4]; 0 min, Rep2): 102
remaining in liver microsomes ([4]; 5 min, Rep1): 98
remaining in liver microsomes ([4]; 5 min, Rep2): 94
remaining in liver microsomes ([4]; 15 min, Rep1): 100
remaining in liver microsomes ([4]; 15 min, Rep2): 98
remaining in liver microsomes ([4]; 30 min, Rep1): 100
remaining in liver microsomes ([4]; 30 min, Rep2): 101
remaining in liver microsomes ([4]; 60 min, Rep1): 97
remaining in liver microsomes ([4]; 60 min, Rep2): 94
remaining binding at 1 µM [5]: 100%
remaining binding at 1 µM [6]: 95%
excess of plasma concentration over focal adhesion IC50 [7]: 60 fold

cell permeability compared to TAMRA-Alkyne control (SK-MEL-147 cells [8]): approximately threefold higher
IC50 [9]: > 25 µM
remaining at 0.25 h, 100 µM (trypsin [11]): 97%
remaining at 0.5 h, 100 µM (trypsin [11]): 99%
remaining at 1 h, 100 µM (trypsin [11]): 98%
remaining at 2 h, 100 µM (trypsin [11]): 95%
remaining at 3 h, 100 µM (trypsin [11]): 90%
remaining at 4 h, 100 µM (trypsin [11]): 92%
remaining at 6 h, 100 µM (trypsin [11]): 93%
remaining at 8 h, 100 µM (trypsin [11]): 93%
remaining at 24 h, 100 µM (trypsin [11]): 91%
remaining at 48 h, 100 µM (trypsin [11]): 89%
Compound: CCCCCCCCCCCCCC(=O)N[C@@H](CC(N)=O)C(=O)N[C@@H](CC(C)C)C(=O)N[C@]1(C)CCCCCCC=CCCC[C@@](C)(C(=O)N[C@@H](CCC(=O)O)C(=O)N[C@@H](CCC(=O)O)C(=O)N[C@@H](CC(N)=O)C(N)=O)NC(=O)[C@H](CC(C)C)NC(=O)[C@H](CC(C)C)NC(=O)[C@H](CCCNC(=N)N)NC(=O)[C@H](CC(=O)O)NC(=O)[C@H](CCC(=O)O)NC(=O)[C@H](CCC(=O)O)NC1=O [compound 2020] (Myristoyl-NL[R8]EEDRLL[S5]EEN-NH2; staple 3-10)
LDH release, plasma membrane damage (SK-MEL-147 cells [10]): do not result in damage to plasma membrane
LDH release, plasma membrane damage (WM88 cells): do not result in damage to plasma membrane

Compound: CNC(=O)c1ccc(Nc2ncc(C(F)(F)F)c(NCc3nccnc3N(C)S(C)(=O)=O)n2)cc1 [defactinib]
IC50 ([9]; Homo sapiens, SK-MEL-147, n = 3, read-out: IC50, reduction of FAK-containing focal adhesions): 11.1 µM
IC50 ([9]; Homo sapiens, SK-MEL-147, n = 3, read-out: IC50, reduction of dual FAK-paxillin containing focal adhesions): 11.2 µM
IC50 ([9]; Homo sapiens, SK-MEL-147, n = 3, read-out: IC50, reduction of paxillin-containing focal adhesions): 18.7 µM
remaining binding at 1 µM [5]: 4.9%
remaining binding at 1 µM [6]: 45%
additional kinases other than FAK inhibited [12]: 44
kinases inhibited >50% (interactions mapped) out of 97 tested [12]: 45
selectivity score S(1) ([12]; 90 non-mutant kinases): 0.033
selectivity score S(10) ([12]; 90 non-mutant kinases): 0.122
selectivity score S(35) ([12]; 90 non-mutant kinases): 0.256
Number of Hits, S(1) ([12]; %Ctrl <1, 90 non-mutant kinases): 3
Number of Hits, S(10) ([12]; %Ctrl <10, 90 non-mutant kinases): 11
Number of Hits, S(35) ([12]; %Ctrl <35, 90 non-mutant kinases): 23
